From patent publication US9045450B2, “Method for chemical synthesis of antrocin and use thereof for suppressing non-small cell lung cancer” (KAIYEW INVESTMENT CORP., priority 2011, dated 2015)
Entries after “also recorded” stand apart in the source; their conditions may differ.

Legend:
H441 cells = test: Apoptosis, flow cytometry; format: cell-based, human; settings: H441, antrocin treatment for 48 hours, FIG. 4 (B)
[1] = tested on: normal human bronchial epithelial cells (BEAS-2B); test: Cytotoxicity, sulforhodamine B; format: cell-based; settings: antrocin 0.5-10 μM, two days, FIG. 4 (A)
Procedure: Human lung cancer cell lines (CL1-0, CL1-5, H1975, H441, PC9, A549) and human bronchial epithelia cell lines (BEAS-2B) were obtained from the Institute of Clinical Medicine, Taipei Medical University. The cells were grown and maintained in DMEM medium (Dulbecco's Modified Eagle's Medium and RPMI basal medium supplemented with 10% fetal bovine serum, 2 mM glutamine, […] streptomycin, and 100 U/ml penicillin in a wet incubator at 5% CO2.
Human lung cancer cells (CL1-0, CL1-5, H1975, H441, PC9, A549) and human bronchial epithelial cells (BEAS-2B) were seeded in 96-well culture plates (2000 cells/well) and incubated overnight in 100 μl complete DMEM. Equal amount of complete DMEM sample containing 50 μl antrocin (0.5-10 μM) was placed in other wells of the culture plates. Further, 100 μl complete DMEM sample was also placed in wells as the control group. After two days, total number of human cells in each well was measured using sulforhodamine B (a fluorescent protein dye). Briefly, human cells were fixed in 10% trichloroacetic acid and stained with 0.4% sulforhodamine B. After being stained for 20 minutes, the human cells were washed with 1% acetic acid, and then sulforhodamine B, which was bound with human cells, was dissolved in 10 mM tris base. The optical density was measured at 562 nm by a microtiter plate detector. […]

[2] = Body weight of tumor-bearing mice; format: in vivo, non-obese diabetic/severe combined immunodeficient mice; settings: 5 and 10 mg/kg/day intraperitoneal, four weeks, FIG. 7 (C)
Procedure: […] cells (6×10^5/100 μl PBS) were intravenously injected into immunodeficient mice via lateral tail vein. Antrocin treatments (low dose of 5 mg/kg/day and high dose of 10 mg/kg/day) were performed by daily intraperitoneal injection into tumor-bearing mice over a period of four weeks. Weekly observations were performed and data were recorded for (A) VIS images, (B) Tumor growth, (C) Body weights, and (D) Survival curves.
The present invention further investigated anticancer effect of antrocin in vivo. H441-L2G cells expressing firefly luciferase and green fluorescent protein were implanted by intravenous injections via the lateral tail vein (6×10^5/100 μl PBS) into non-obese diabetic/severe combined immunodeficient mice. Daily intraperitoneal injections of antrocin (two groups of mice, a low dose of 5 mg/kg/day and a high dose of 10 mg/kg/day) were given over a period of four weeks to observe tumor growth.
The present invention further investigated the anticancer effect of antrocin in vivo. H441-L2G cells expressing firefly luciferase and green fluorescent protein were implanted by intravenous injections via the lateral tail vein (6×10^5/100 μl PBS) into non-obese diabetic/severe combined immunodeficiency mice. […]

H1975 cells = test: Apoptosis, flow cytometry; format: cell-based, human; settings: H1975, antrocin treatment for 48 hours, FIG. 4 (B)
breast cancer cells = settings: natural antrocin isolated from Antrodia; Rao et al., 2011; cited from earlier work
H441 lung cancer cells = test: Microarray analysis of gene transcription in H441 cells after antrocin treatment; format: cell-based, Homo sapiens; settings: 12 hours
Procedure: (§1) The present invention further investigated the effect of antrocin on cancer cells at the genetic level. After H441 cells had been treated with 5 μM antrocin for 12 hours, the effect of antrocin on genetic transcription was analyzed. Only those genes whose expressions were inhibited 3.5 times or more were analyzed as target genes by GeneSpring software package and the results were presented using a tree diagram (FIG. 5). […] These genes play important roles in cell proliferations, inflammatory responses, metastases, invasions, angiogenesis, and cell cycle regulations. […] These genes are associated with transcription factor NF-kB, for example cytokines (IFI44, IFIT1, MX1), inflammatory responses (NFkB1 and IFIT2), stem cell properties (CTNNBL1, SENP2, CEACAM1 and POU5F2), and drug resistance reactions (ABCB5, ABCG2 and XAF1), etc. Based on the aforementioned microarray results, the present invention further investigated protein expressions associated with inflammation related factors, stem cell properties, and drug resistance related molecules.
as §1, with “effect of Antrocin on genetic” for “effect of antrocin on genetic”, “a tree diagram. STRING9.0 software package was also used to predict the effect of antrocin on the signaling pathway of H441 cells and possible target genes to be inhibited (FIG. 5).” for “a tree diagram (FIG. 5).”, “example cytokines (1F144, IFIT1, MX1),” for “example cytokines (IFI44, IFIT1, MX1),”, “further investigated inflammatory responses, stem cell” for “further investigated protein expressions associated with inflammation related factors, stem cell”, “properties, and multidrug resistance-associated protein expressions.” for “properties, and drug resistance related molecules.”

C=C1CC[C@H]2C(C)(C)CCC[C@@]23C(=O)OC[C@@H]13 [antrocin]
number of cells in early and late (final) stage of apoptosis (H441 cells): increase in the number of cells in early and late stage of apoptosis in a dose-dependent fashion; also recorded: increased significantly in a dose-dependent fashion | cytotoxicity against normal human bronchial epithelial cells [1]: no cytotoxicity | body weight, treated group vs control group [2]: no significant difference | number of cells in early and late (final) stage of apoptosis (H1975 cells): increase in the number of cells in early and late stage of apoptosis in a dose-dependent fashion; also recorded: increased significantly in a dose-dependent fashion | inhibition of cell proliferation in breast cancer cells (breast cancer cells): inhibited the cell proliferation; also recorded: effectively inhibited cell proliferation | number of genes whose expressions were significantly affected (H441 lung cancer cells; 5 μM antrocin): more than 100 genes | Multiple (reduction of gene expression) (H441 lung cancer cells; ABCB5, probe 8137310, 5 μM antrocin): 3.62 | Multiple (reduction of gene expression) (H441 lung cancer cells; ABCG2, probe 8101675, 5 μM antrocin): 3.93 | Multiple (reduction of gene expression) (H441 lung cancer cells; AKT1S1, probe 8038477, 5 μM antrocin): 10.29 | Multiple (reduction of gene expression) (H441 lung cancer cells; ANG, probe 7973084, 5 μM antrocin): 4.24 | Multiple (reduction of gene expression) (H441 lung cancer cells; CDC14C, probe 8132803, 5 μM antrocin): 5.49 | Multiple (reduction of gene expression) (H441 lung cancer cells; CEACAM1, probe 8037205, 5 μM antrocin): 4.99 | Multiple (reduction of gene expression) (H441 lung cancer cells; CXCL10, probe 8101126, 5 μM antrocin): 4.62 | Multiple (reduction of gene expression) (H441 lung cancer cells; EDG7, probe 7917276, 5 μM antrocin): 3.75 | Multiple (reduction of gene expression) (H441 lung cancer cells; EPSTI1, probe 7971296, 5 μM antrocin): 5.61 | Multiple (reduction of gene expression) (H441 lung cancer cells; FLJ35880, probe 8082585, 5 μM antrocin): 5.48 | Multiple (reduction of gene expression) (H441 lung cancer cells; FOSL1, probe 7949532, 5 μM antrocin): 9.93 | Multiple (reduction of gene expression) (H441 lung cancer cells; GDPD1, probe 8008802, 5 μM antrocin): 3.73 | Multiple (reduction of gene expression) (H441 lung cancer cells; IFI16, probe 7906400, 5 μM antrocin): 4.9 | Multiple (reduction of gene expression) (H441 lung cancer cells; IFI44, probe 7902553, 5 μM antrocin): 8.3 | Multiple (reduction of gene expression) (H441 lung cancer cells; IFIT1, probe 7929065, 5 μM antrocin): 5.28 | Multiple (reduction of gene expression) (H441 lung cancer cells; IFIT2, probe 7929047, 5 μM antrocin): 4.44 | Multiple (reduction of gene expression) (H441 lung cancer cells; IFITM2, probe 7937330, 5 μM antrocin): 6.16 | Multiple (reduction of gene expression) (H441 lung cancer cells; LAMP3, probe 8092348, 5 μM antrocin): 3.8 | Multiple (reduction of gene expression) (H441 lung cancer cells; LBA1, probe 8086125, 5 μM antrocin): 4.35 | Multiple (reduction of gene expression) (H441 lung cancer cells; LILRA3, probe 8039226, 5 μM antrocin): 4.58 | Multiple (reduction of gene expression) (H441 lung cancer cells; MX1, probe 8068713, 5 μM antrocin): 5.42 | Multiple (reduction of gene expression) (H441 lung cancer cells; NFKB1, probe 8096635, 5 μM antrocin): 3.85 | Multiple (reduction of gene expression) (H441 lung cancer cells; OAS2, probe 7958913, 5 μM antrocin): 5.91 | Multiple (reduction of gene expression) (H441 lung cancer cells; OASL, probe 7967117, 5 μM antrocin): 4.09 | Multiple (reduction of gene expression) (H441 lung cancer cells; OR1L8, probe 8163960, 5 μM antrocin): 3.83 | Multiple (reduction of gene expression) (H441 lung cancer cells; PARP9, probe 8090018, 5 μM antrocin): 4.03 | Multiple (reduction of gene expression) (H441 lung cancer cells; PARP14, probe 8082100, 5 μM antrocin): 4.3 | Multiple (reduction of gene expression) (H441 lung cancer cells; POU5F2, probe 8113094, 5 μM antrocin): 3.9 | Multiple (reduction of gene expression) (H441 lung cancer cells; PPARGC1A, probe 8099633, 5 μM antrocin): 4.44 | Multiple (reduction of gene expression) (H441 lung cancer cells; RTP4, probe 8084732, 5 μM antrocin): 4.6 | Multiple (reduction of gene expression) (H441 lung cancer cells; SAMD9L, probe 8140971, 5 μM antrocin): 4.08 | Multiple (reduction of gene expression) (H441 lung cancer cells; SENP2, probe 8084607, 5 μM antrocin): 8.9 | Multiple (reduction of gene expression) (H441 lung cancer cells; SIGLEC5, probe 8038877, 5 μM antrocin): 4.94 | Multiple (reduction of gene expression) (H441 lung cancer cells; SLFN5, probe 8006531, 5 μM antrocin): 3.65 | Multiple (reduction of gene expression) (H441 lung cancer cells; TAX1BP3, probe 8011407, 5 μM antrocin): 7.15 | Multiple (reduction of gene expression) (H441 lung cancer cells; TNFSF10, probe 8092169, 5 μM antrocin): 4.09 | Multiple (reduction of gene expression) (H441 lung cancer cells; TRIM22, probe 7938035, 5 μM antrocin): 7.65 | Multiple (reduction of gene expression) (H441 lung cancer cells; XAF1, transcript variant 1, probe 8004184, 5 μM antrocin): 12.61 | Multiple (reduction of gene expression) (H441 lung cancer cells; ZC3H6, probe 8044450, 5 μM antrocin): 3.5 | Multiple (reduction of gene expression) (H441 lung cancer cells; cDNA DKFZp451O2417, probe 7902541, 5 μM antrocin): 10.74 | Multiple (reduction of gene expression) (H441 lung cancer cells; catenin, beta like 1 (TNNBL1), probe 8062409, 5 μM antrocin): 3.59
